This is an account of results in paper PMC11812085, “Structural Dynamics of the Ubiquitin Specific Protease USP30 in Complex with a Cyanopyrrolidine-Containing Covalent Inhibitor” (Journal of Proteome Research, 2025).

Each structure is given as a SMILES string.

For the assay, the target named is T1, USP30 (ubiquitin specific protease 30) (Homo sapiens, UniProt Q70CQ3, DEL179-216/DEL288-305).
T1 construct: residues 64-502Δ179-216 and 288-305
T1 sequence (Q70CQ3 with tags, fused parts or gaps DEL179-216/DEL288-305): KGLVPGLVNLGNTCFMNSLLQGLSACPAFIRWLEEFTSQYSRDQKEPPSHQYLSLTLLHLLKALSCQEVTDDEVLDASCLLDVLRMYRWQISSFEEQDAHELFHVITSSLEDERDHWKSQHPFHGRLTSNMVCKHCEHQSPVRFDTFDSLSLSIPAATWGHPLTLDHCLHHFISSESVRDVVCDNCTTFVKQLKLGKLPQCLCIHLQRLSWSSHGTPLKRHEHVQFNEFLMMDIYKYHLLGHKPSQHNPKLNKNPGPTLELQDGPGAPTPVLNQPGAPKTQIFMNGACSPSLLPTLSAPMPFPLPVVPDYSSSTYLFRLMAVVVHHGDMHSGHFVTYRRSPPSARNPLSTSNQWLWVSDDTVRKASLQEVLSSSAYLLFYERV
Briefly: RapidFire MS of covalent complex and HDX-MS on recombinant USP30; KI from kinact/KI kinetics with Ub-rhodamine (IC50 […] after […] min preincubation; […] in SH-SY5Y lysate ABPP). The assay is classed as biochemical.

In the case of `C[C@@H]1C[C@@H](NC(=O)c2ncc(-c3cccc(C#N)c3)o2)CN1C#N` [USP30-I-1], the KI (inactivation) was around 350 nM.
